For one series, the system named is MDA-MB-231. The series is described as follows: Cytotoxicity against human MDA-MB-231 cells assessed as inhibition of cell viability incubated for 72 hrs by SRB assay. Format: functional, cell-based. The conditions noted are these: MDA-MB-231, 72 h.
A further series relates to HCC1806. The series can be described thus: Cytotoxicity against human HCC1806 cells assessed as inhibition of cell viability incubated for 72 hrs by SRB assay. The conditions noted are these: HCC1806, 72 h. The series is classed as functional, cell-based. For orientation: The SRB assay estimates cell density from bound dye.
A short description of series [1]: Stability in human plasma assessed as half life at 100 uM by LC-MS/MS analysis. Format: ADME, cell-free.

Some results are limits rather than exact numbers.

A word on the IC50: it is the point on the concentration scale where inhibition reaches its midpoint. Consider `C=C1C(=O)[C@@]23C(=O)[C@@H]4OC[C@@]5([C@H]4C(C)(C)CC[C@@H]5O)[C@@H]2CC[C@@H]1[C@H]3OC(=O)c1ccc(N(CCCl)CCCl)cc1`, for which the IC50 with MDA-MB-231 was 1.83 µM; with HCC1806, 1.61 µM.

As for `C=C1C(=O)[C@]23[C@H](OC(=O)/C=C/c4ccc(N(C)C)cc4)[C@H]1CC[C@H]2[C@@]12CO[C@]3(O)[C@@H](O)[C@@H]1C(C)(C)CCC2=O`, the IC50 came to 1.79 µM with MDA-MB-231 and 2.77 µM in the series with HCC1806.

As for `C=C1C(=O)[C@@]23C(=O)[C@@H]4OC[C@]5(C(=O)CCC(C)(C)[C@@H]45)[C@@H]2CC[C@@H]1[C@H]3OC(=O)c1ccc(N(CCCl)CCCl)cc1`, the 50% inhibitory concentration (IC50) in the series with MDA-MB-231 is 5.7 µM; in the series with HCC1806 it was > 10 µM.

On to `C=C1C(=O)[C@]23[C@H](O)[C@H]1CC[C@H]2[C@]12C=CCC(C)(C)[C@H]1[C@H](O)[C@@]3(O)OC2`, for which the IC50 turned out to be 0.87 µM with MDA-MB-231 and 0.91 µM in the series on HCC1806.

For `C=C1C(=O)[C@@]23C(=O)[C@@H]4OC[C@]5(C(=O)CCC(C)(C)[C@@H]45)[C@@H]2CC[C@@H]1[C@H]3OC(=O)Cc1ccc(OC)cc1`, the figures for the half-inhibitory concentration (IC50) in the series with MDA-MB-231 and in the series on HCC1806 were 3.06 µM and 4.6 µM, respectively.

In the case of `C=C1C(=O)[C@]23[C@H](OC(=O)c4ccc(N(CCCl)CCCl)cc4)[C@H]1CC[C@H]2[C@@]12CO[C@]3(O)[C@@H](O)[C@@H]1C(C)(C)CC[C@@H]2O`, the IC50 in the series with MDA-MB-231 turned out to be 1.67 µM; in the series on HCC1806, 1.32 µM.

For the compound `C=C1C(=O)[C@]23[C@H](O)[C@H]1CC[C@H]2[C@@]12CO[C@@]3(O)[C@@H](O)[C@@H]1C(C)(C)CC[C@@H]2OC(C)=O`, the results for the IC50 in the series on MDA-MB-231 and with HCC1806 were 2.49 µM and 2.68 µM, respectively.

Take `C=C1C(=O)[C@]23[C@H](OC(=O)C45CC6CC(CC(C6)C4)C5)[C@H]1CC[C@H]2[C@]12C=CCC(C)(C)[C@H]1[C@H](O)[C@@]3(O)OC2`: the IC50 with MDA-MB-231 was determined as 2.42 µM; with HCC1806, 2.61 µM.

With `C=C1C(=O)[C@]23[C@H](OC(=O)C45CC6CC(CC(C6)C4)C5)[C@H]1CC[C@H]2[C@@]12CO[C@]3(O)[C@@H](O)[C@@H]1C(C)(C)CCC2=O`, the 50% inhibitory concentration (IC50) in the series on MDA-MB-231 came to 1.43 µM; with HCC1806, 1.91 µM.

On to `C=C1C(=O)[C@]23[C@H](OC(=O)c4ccc(N(CCCl)CCCl)cc4)[C@H]1CC[C@H]2[C@@]12CO[C@]3(O)[C@@H](O)[C@@H]1C(C)(C)CCC2=O`, for which the IC50 with MDA-MB-231 is 1.72 µM; in the series with HCC1806 it was 3.64 µM.

Regarding `C=C1C(=O)[C@@]23C(=O)[C@@H]4OC[C@]5(C(=O)CCC(C)(C)[C@@H]45)[C@@H]2CC[C@@H]1[C@H]3OC(=O)Cc1cc(OC)c(OC)c(OC)c1`, the figures for the half-inhibitory concentration (IC50) with MDA-MB-231 and in the series with HCC1806 were 2.6 µM and 5.07 µM, respectively.

Regarding `C=C1C(=O)[C@]23[C@H](OC(=O)Cc4ccc(OC)c(OC)c4)[C@H]1CC[C@H]2[C@@]12CO[C@]3(O)[C@@H](O)[C@@H]1C(C)(C)CCC2=O`, the half-inhibitory concentration (IC50) in the series on MDA-MB-231 is 8.43 µM; with HCC1806 it was > 10 µM.

Turning to `C=C1C(=O)[C@@]23C(=O)[C@@H]4OC[C@]5(C=CCC(C)(C)[C@@H]45)[C@@H]2CC[C@@H]1[C@H]3O`, the IC50 was 2.78 µM in the series with MDA-MB-231 and 4.01 µM in the series on HCC1806.

By half-life is commonly meant how long it takes for the measured level to halve. Consider `C=C1C(=O)[C@]23[C@H](O)[C@H]1CC[C@H]2[C@@]12CO[C@]3(O)[C@@H](O)[C@@H]1C(C)(C)CC[C@@H]2O` [ORIDONIN], for which the concentration for half-maximal inhibition (IC50) in the series with MDA-MB-231 was 5.31 µM; in the series on HCC1806, 12.6 µM. For the same compound, the half-life at 100 µM in series [1] turned out to be 1.45 h.

Consider `C=C1C(=O)[C@@]23C(=O)[C@@H]4OC[C@]5(C(=O)CCC(C)(C)[C@@H]45)[C@@H]2CC[C@@H]1[C@H]3OC(=O)Cc1ccc(OC)c(OC)c1`, for which the IC50 worked out at 1.81 µM in the series on MDA-MB-231 and 2.58 µM in the series with HCC1806.

Regarding `C=C1C(=O)[C@@]23C(=O)[C@@H]4OC[C@]5(C=CCC(C)(C)[C@@H]45)[C@@H]2CC[C@@H]1[C@H]3OC(=O)c1ccc(N(CCCl)CCCl)cc1`, the IC50 worked out at 2.21 µM in the series with MDA-MB-231 and 3.02 µM in the series on HCC1806.

In the case of `C=C1C(=O)[C@]23[C@H](OC(=O)c4ccc(N(CCCl)CCCl)cc4)[C@H]1CC[C@H]2[C@]12C=CCC(C)(C)[C@H]1[C@H](O)[C@@]3(O)OC2`, the IC50 in the series on MDA-MB-231 was 1.09 µM; with HCC1806 it was 1.4 µM.

As for `C=C1C(=O)[C@]23[C@H](OC(=O)Cc4cc(OC)c(OC)c(OC)c4)[C@H]1CC[C@H]2[C@@]12CO[C@]3(O)[C@@H](O)[C@@H]1C(C)(C)CCC2=O`, the IC50 in the series on MDA-MB-231 and in the series on HCC1806 was > 10 µM throughout.

Regarding `C=C1C(=O)[C@]23[C@H](OC(=O)Cc4ccc(OC)cc4)[C@H]1CC[C@H]2[C@]12C=CCC(C)(C)[C@H]1[C@H](O)[C@@]3(O)OC2`, the 50% inhibitory concentration (IC50) in the series with MDA-MB-231 and in the series on HCC1806 was > 10 µM each time.

Take `C=C1C(=O)[C@]23[C@H](OC(=O)Cc4cc(OC)c(OC)c(OC)c4)[C@H]1CC[C@H]2[C@]12C=CCC(C)(C)[C@H]1[C@H](O)[C@@]3(O)OC2`: the half-inhibitory concentration (IC50) in the series on MDA-MB-231 and in the series on HCC1806 was > 10 µM throughout.

As for `C=C1C(=O)[C@]23[C@H](OC(=O)Cc4ccc(OC)cc4)[C@H]1CC[C@H]2[C@@]12CO[C@]3(O)[C@@H](O)[C@@H]1C(C)(C)CCC2=O`, the IC50 in the series on MDA-MB-231 and in the series on HCC1806 was > 10 µM each time.

Take `C=C1C(=O)[C@@]23C(=O)[C@@H]4OC[C@]5(C(=O)CCC(C)(C)[C@@H]45)[C@@H]2CC[C@@H]1[C@H]3OC(=O)Cc1ccc(N(CCCl)CCCl)cc1`: the half-inhibitory concentration (IC50) is 11.5 µM with MDA-MB-231 and > 10 µM with HCC1806.

With `C=C1C(=O)[C@]23[C@H](O)[C@H]1CC[C@H]2[C@@]12CO[C@]3(O)[C@@H](O)[C@@H]1C(C)(C)CCC2=O`, the IC50 in the series with MDA-MB-231 was found to be 2.07 µM; with HCC1806, 3.56 µM.

Consider `C=C1C(=O)[C@]23[C@H](OC(=O)C45CC6CC(CC(C6)C4)C5)[C@H]1CC[C@H]2[C@@]12CO[C@]3(O)[C@@H](O)[C@@H]1C(C)(C)CC[C@@H]2OC(C)=O`, for which the IC50 in the series with MDA-MB-231 amounted to 0.55 µM; with HCC1806 it was 1.48 µM.

As to `C=C1C(=O)[C@@]23C(=O)[C@@H]4OC[C@]5(C(=O)CCC(C)(C)[C@@H]45)[C@@H]2CC[C@@H]1[C@H]3OC(=O)C12CC3CC(CC(C3)C1)C2`, the IC50 in the series with MDA-MB-231 was determined as 3.26 µM; with HCC1806, 5.59 µM.

For `C=C1C(=O)[C@]23[C@H](OC(=O)Cc4ccccc4Br)[C@H]1CC[C@H]2[C@@]12CO[C@]3(O)[C@@H](O)[C@@H]1C(C)(C)CCC2=O`, the IC50 in the series with MDA-MB-231 worked out at 3.58 µM; in the series on HCC1806 it was 7.12 µM.

For `C=C1C(=O)[C@]23[C@H](OC(=O)Cc4ccc(OC)c(OC)c4)[C@H]1CC[C@H]2[C@]12C=CCC(C)(C)[C@H]1[C@H](O)[C@@]3(O)OC2`, the IC50 with MDA-MB-231 and in the series with HCC1806 was > 10 µM in each case.

Take `C=C1C(=O)[C@@]23C(=O)[C@@H]4OC[C@]5(C=CCC(C)(C)[C@@H]45)[C@@H]2CC[C@@H]1[C@H]3OC(=O)Cc1cc(OC)c(OC)c(OC)c1`: the IC50 in the series on MDA-MB-231 was 3.82 µM; in the series on HCC1806 it was 5.54 µM.

With `C=C1C(=O)[C@@]23C(=O)[C@@H]4OC[C@]5(C(=O)CCC(C)(C)[C@@H]45)[C@@H]2CC[C@@H]1[C@H]3OC(=O)Cc1ccccc1Br`, the IC50 with MDA-MB-231 and in the series on HCC1806 was > 10 µM each time.

As for `C=C1C(=O)[C@@]23C(=O)[C@@H]4OC[C@@]5([C@H]4C(C)(C)CC[C@@H]5O)[C@@H]2CC[C@@H]1[C@H]3OC(=O)C12CC3CC(CC(C3)C1)C2`, the IC50 with MDA-MB-231 stood at 1.5 µM; in the series with HCC1806, 2.13 µM.

In the case of `C=C1C(=O)[C@]23[C@H](OC(=O)Cc4ccc(N(CCCl)CCCl)cc4)[C@H]1CC[C@H]2[C@@]12CO[C@]3(O)[C@@H](O)[C@@H]1C(C)(C)CCC2=O`, the concentration for half-maximal inhibition (IC50) is 7.29 µM in the series with MDA-MB-231 and > 10 µM with HCC1806.

As to `C=C1C(=O)[C@@]23C(=O)[C@@H]4OC[C@]5(C=CCC(C)(C)[C@@H]45)[C@@H]2CC[C@@H]1[C@H]3OC(=O)C12CC3CC(CC(C3)C1)C2`, the figures for the IC50 in the series with MDA-MB-231 and in the series on HCC1806 were 3.66 µM and 5.51 µM, respectively.

Turning to `C=C1C(=O)[C@@]23C(=O)[C@@H]4OC[C@]5([C@@H](OC(C)=O)CCC(C)(C)[C@@H]45)[C@@H]2CC[C@@H]1[C@H]3OC(=O)C12CC3CC(CC(C3)C1)C2`, the IC50 in the series on MDA-MB-231 worked out at 1.41 µM; in the series with HCC1806, 2.39 µM.
